Assay results from ChEMBL document CHEMBL1909046, “DrugMatrix in vitro pharmacology data”.
pIC50, pKi: −log10 of the molar value.

Tests used:
[1] = DRUGMATRIX: Glutamate, AMPA radioligand binding (ligand: [3H] AMPA); assay type: cell membranes, Rattus norvegicus, Wistar, Cerebral cortex, Membrane; conditions: Not Active = under 50% inhibition at 10 µM
[2] = DRUGMATRIX: Imidazoline I2, Central radioligand binding (ligand: [3H] Idazoxan); assay type: cell membranes, Rattus norvegicus, Wistar, Cerebral cortex, Membrane; conditions: Not Active = under 50% inhibition at 10 µM
[3] = target: Platelet-activating factor receptor (Homo sapiens, UniProt P25105); assay: biochemical; assay type: tissue-based; conditions: for IC50: platelet; on all read-outs here: in other assays of this panel Not Active means under 50% inhibition at 10 µM
Platelet-activating factor receptor, sequence (P25105 whole entry): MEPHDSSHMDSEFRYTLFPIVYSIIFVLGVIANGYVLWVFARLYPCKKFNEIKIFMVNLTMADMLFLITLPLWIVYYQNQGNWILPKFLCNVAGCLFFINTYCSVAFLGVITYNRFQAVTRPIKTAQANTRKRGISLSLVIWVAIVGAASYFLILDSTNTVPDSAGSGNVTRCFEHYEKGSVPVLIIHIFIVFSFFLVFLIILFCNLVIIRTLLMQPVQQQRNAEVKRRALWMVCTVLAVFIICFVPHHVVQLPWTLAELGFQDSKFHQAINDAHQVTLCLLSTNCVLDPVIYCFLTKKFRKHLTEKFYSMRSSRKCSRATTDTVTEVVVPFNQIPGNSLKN

Caspase-1 = target: T1, Caspase-1 (Homo sapiens, UniProt P29466); set-up: species or system Escherichia coli;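 further: Caspase-1 enzyme inhibition assay with a peptide substrate; in other assays of this panel Not Active means under 50% inhibition at 10 µM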
T1 sequence (P29466 whole entry): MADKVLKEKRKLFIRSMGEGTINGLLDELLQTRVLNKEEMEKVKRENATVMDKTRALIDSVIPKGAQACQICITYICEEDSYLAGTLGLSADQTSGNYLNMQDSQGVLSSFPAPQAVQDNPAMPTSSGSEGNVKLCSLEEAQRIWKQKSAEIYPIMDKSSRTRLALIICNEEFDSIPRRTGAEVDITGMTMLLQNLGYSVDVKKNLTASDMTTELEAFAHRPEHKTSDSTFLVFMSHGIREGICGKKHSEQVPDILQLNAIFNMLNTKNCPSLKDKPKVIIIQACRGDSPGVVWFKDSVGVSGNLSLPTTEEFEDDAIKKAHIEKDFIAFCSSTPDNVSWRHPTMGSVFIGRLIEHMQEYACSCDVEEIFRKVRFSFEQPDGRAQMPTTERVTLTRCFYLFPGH

[4] = target: Receptor tyrosine-protein kinase erbB-2 (Homo sapiens, UniProt P04626); assay: biochemical; assay type: cell-based, Insect cells; conditions: for IC50: insect cells;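 on all read-outs here: inhibition of HER2 kinase enzyme activity, measured with Poly(Glu:Tyr) as the phosphorylation substrate; in other assays of this panel Not Active means under 50% inhibition at 10 µM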
Receptor tyrosine-protein kinase erbB-2, sequence (P04626 whole entry): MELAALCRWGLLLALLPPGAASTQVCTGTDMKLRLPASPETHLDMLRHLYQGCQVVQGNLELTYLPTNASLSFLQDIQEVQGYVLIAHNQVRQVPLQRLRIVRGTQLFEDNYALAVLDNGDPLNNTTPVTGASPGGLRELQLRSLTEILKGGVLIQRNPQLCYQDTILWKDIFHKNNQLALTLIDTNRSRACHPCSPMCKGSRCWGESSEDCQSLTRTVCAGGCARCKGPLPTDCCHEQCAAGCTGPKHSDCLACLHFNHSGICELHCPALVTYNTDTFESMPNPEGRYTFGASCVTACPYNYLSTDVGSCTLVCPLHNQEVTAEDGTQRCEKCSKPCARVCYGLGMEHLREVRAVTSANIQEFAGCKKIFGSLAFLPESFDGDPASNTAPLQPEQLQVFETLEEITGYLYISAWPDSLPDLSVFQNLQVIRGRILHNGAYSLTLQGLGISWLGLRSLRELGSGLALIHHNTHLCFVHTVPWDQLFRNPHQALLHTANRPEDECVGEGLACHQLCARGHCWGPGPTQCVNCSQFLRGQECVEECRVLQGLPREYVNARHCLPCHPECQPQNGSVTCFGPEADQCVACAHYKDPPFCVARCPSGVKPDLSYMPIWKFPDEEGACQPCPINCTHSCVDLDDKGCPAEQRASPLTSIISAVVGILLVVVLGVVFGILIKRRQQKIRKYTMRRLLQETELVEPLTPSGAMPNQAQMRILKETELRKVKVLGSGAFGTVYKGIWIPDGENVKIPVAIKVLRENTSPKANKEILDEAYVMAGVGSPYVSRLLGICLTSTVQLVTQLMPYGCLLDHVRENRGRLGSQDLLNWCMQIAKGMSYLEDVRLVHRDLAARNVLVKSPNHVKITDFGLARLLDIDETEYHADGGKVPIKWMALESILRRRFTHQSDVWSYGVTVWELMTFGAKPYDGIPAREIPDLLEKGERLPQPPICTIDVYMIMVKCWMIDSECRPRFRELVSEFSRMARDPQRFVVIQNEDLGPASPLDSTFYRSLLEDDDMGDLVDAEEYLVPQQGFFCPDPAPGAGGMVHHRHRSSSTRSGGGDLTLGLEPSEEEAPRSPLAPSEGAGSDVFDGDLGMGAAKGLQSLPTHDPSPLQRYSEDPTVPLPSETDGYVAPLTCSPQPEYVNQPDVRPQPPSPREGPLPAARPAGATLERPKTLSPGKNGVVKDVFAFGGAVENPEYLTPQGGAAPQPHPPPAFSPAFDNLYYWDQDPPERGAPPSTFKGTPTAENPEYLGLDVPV

[5] = target: 5-hydroxytryptamine receptor 1B (Rattus norvegicus, UniProt P28564); assay type: cell membranes, Wistar, Cerebral cortex, Membrane; further: in other assays of this panel Not Active means under 50% inhibition at 10 µM
5-hydroxytryptamine receptor 1B, sequence (P28564 whole entry): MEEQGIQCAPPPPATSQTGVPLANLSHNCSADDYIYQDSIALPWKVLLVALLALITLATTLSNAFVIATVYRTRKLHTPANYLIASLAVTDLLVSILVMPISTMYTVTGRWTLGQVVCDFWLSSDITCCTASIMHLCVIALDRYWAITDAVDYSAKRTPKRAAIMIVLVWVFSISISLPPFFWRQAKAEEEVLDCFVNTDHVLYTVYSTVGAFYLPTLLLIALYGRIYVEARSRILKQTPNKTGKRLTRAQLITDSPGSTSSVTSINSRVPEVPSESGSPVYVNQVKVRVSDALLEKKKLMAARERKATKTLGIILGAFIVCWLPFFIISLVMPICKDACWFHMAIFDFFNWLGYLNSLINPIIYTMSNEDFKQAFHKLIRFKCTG

Row | Structure (SMILES) | IC50 [1] | Ki [1] | IC50 [2] | Ki [2] | IC50 [3] | IC50 (Caspase-1) | IC50 [4] | IC50 [5] | pIC50 ([2]; read-out: IC50) | pKi ([2]; read-out: Ki) | pIC50 ([5]; read-out: IC50) | pKi ([5]; read-out: Ki) | pIC50 ([4]; read-out: IC50) | pIC50 ([3]; read-out: IC50) | pKi ([3]; read-out: Ki)
1 | Nn1nnc2ccccc21 | Not Active | Not Active | Not Active | Not Active | Not Active | Not Active | Not Active | Not Active |  |  |  |  |  |  | 
2 | CC[C@]1(O)CC[C@H]2[C@@H]3CCC4=CCCC[C@@H]4[C@H]3CC[C@@]21C | Not Active | Not Active | Not Active | Not Active | Not Active | Not Active | Not Active | Not Active |  |  |  |  |  |  | 
3 | N[C@@H](Cc1ccc(F)cc1)C(=O)O | Not Active | Not Active | Not Active | Not Active | Not Active | Not Active | Not Active | Not Active |  |  |  |  |  |  | 
4 | CCOC(=O)[C@H](CCc1ccccc1)N[C@@H](C)C(=O)N1Cc2ccccc2C[C@H]1C(=O)O | Not Active | Not Active | Not Active | Not Active | Not Active | Not Active | Not Active | Not Active |  |  |  |  |  |  | 
5 | O=C(c1ccccc1Cl)N1CCC(Cc2ccccc2)CC1 | Not Active | Not Active | Not Active | Not Active | Not Active | Not Active | Not Active | Not Active |  |  |  |  |  |  | 
6 | CCOC(=O)[C@H](CCc1ccccc1)N[C@@H](C)C(=O)N1CCC[C@H]1C(=O)O | Not Active | Not Active | Not Active | Not Active | Not Active | Not Active | Not Active | Not Active |  |  |  |  |  |  | 
7 | Clc1cc2c(cc1Cl)Oc1cc(Cl)c(Cl)cc1O2 [2,3,7,8-TETRACHLORODIBENZO-P-DIOXIN] | Not Active | Not Active | Not Active | Not Active | Not Active | Not Active | Not Active | Not Active |  |  |  |  |  |  | 
8 | C=C1/C(=C\C=C2/CCC[C@]3(C)[C@@H]([C@H](C)CCCC(C)C)CC[C@@H]23)C[C@@H](O)C[C@@H]1O [ALFACALCIDOL] | Not Active | Not Active | Not Active | Not Active | Not Active | Not Active | Not Active | Not Active |  |  |  |  |  |  | 
9 | CCCCCC[C@H]1C(=O)O[C@H](C)[C@H](NC(=O)c2cccc(NC=O)c2O)C(=O)O[C@@H](C)[C@@H]1OC(=O)CC(C)C [ANTIMYCIN A] | Not Active | Not Active | Not Active | Not Active | Not Active | Not Active | Not Active | Not Active |  |  |  |  |  |  | 
10 | C[C@@H]1CC[C@H]2[C@@H](C)C(=O)O[C@@H]3O[C@@]4(C)CC[C@@H]1[C@]32OO4 [ARTEMISININ] | Not Active | Not Active | Not Active | Not Active | Not Active | Not Active | Not Active | Not Active |  |  |  |  |  |  | 
11 | CO[C@H]1[C@@H](O)[C@H](N)[C@@H](O[C@H]2O[C@H]([C@H](C)N)CC[C@H]2N)[C@H](O)[C@@H]1N(C)C(=O)CN [ASTROMICIN] | Not Active | Not Active | Not Active | Not Active | Not Active | Not Active | Not Active | Not Active |  |  |  |  |  |  | 
12 | [N-]=[N+]=CC(=O)OC[C@H](N)C(=O)O [AZASERINE] | Not Active | Not Active | Not Active | Not Active | Not Active | Not Active | Not Active | Not Active |  |  |  |  |  |  | 
13 | CC[C@H]1OC(=O)[C@H](C)[C@@H](O[C@H]2C[C@@](C)(OC)[C@@H](O)[C@H](C)O2)[C@H](C)[C@@H](O[C@@H]2O[C@H](C)C[C@H](N(C)C)[C@H]2O)[C@](C)(O)C[C@@H](C)CN(C)[C@H](C)[C@@H](O)[C@]1(C)O [AZITHROMYCIN] | Not Active | Not Active | Not Active | Not Active | Not Active | Not Active | Not Active | Not Active |  |  |  |  |  |  | 
14 | CC(C)(C)c1ccc(S(=O)(=O)/C=C/C#N)cc1 [BAY-11-7085] | Not Active | Not Active | Not Active | Not Active | Not Active | Not Active | Not Active | Not Active |  |  |  |  |  |  | 
15 | CCc1oc2ccccc2c1C(=O)c1cc(Br)c(O)c(Br)c1 [BENZBROMARONE] | Not Active | Not Active | Not Active | Not Active | Not Active | Not Active | Not Active | Not Active |  |  |  |  |  |  | 
16 | O=c1cc(-c2ccccc2)oc2ccc3ccccc3c12 [BETA-NAPHTHOFLAVONE] | Not Active | Not Active | Not Active | Not Active | Not Active | Not Active | Not Active | Not Active |  |  |  |  |  |  | 
17 | CC(C)C[C@H]1C(=O)N2CCC[C@H]2[C@]2(O)O[C@](NC(=O)[C@@H]3C=C4c5cccc6[nH]c(Br)c(c56)C[C@H]4N(C)C3)(C(C)C)C(=O)N12 [BROMOCRIPTINE] | Not Active | Not Active |  |  | Not Active | Not Active | Not Active |  | 7.28 | 7.46 | 6.99 | 7.33 |  |  | 
18 | CS(=O)(=O)OCCCCOS(C)(=O)=O [BUSULFAN] | Not Active | Not Active | Not Active | Not Active | Not Active | Not Active | Not Active | Not Active |  |  |  |  |  |  | 
19 | O=C(/C=C/c1ccc(O)c(O)c1)OCCc1ccccc1 [CAFFEIC ACID PHENETHYL ESTER] | Not Active | Not Active | Not Active | Not Active | Not Active | Not Active |  | Not Active |  |  |  |  | 5.88 |  | 
20 | COc1cc(CNC(=O)CCCC/C=C/C(C)C)ccc1O [CAPSAICIN] | Not Active | Not Active | Not Active | Not Active | Not Active | Not Active | Not Active | Not Active |  |  |  |  |  |  | 
21 | NC(=O)N1c2ccccc2C=Cc2ccccc21 [CARBAMAZEPINE] | Not Active | Not Active | Not Active | Not Active | Not Active | Not Active | Not Active | Not Active |  |  |  |  |  |  | 
22 | CCOC(=O)n1ccn(C)c1=S [CARBIMAZOLE] | Not Active | Not Active | Not Active | Not Active | Not Active | Not Active | Not Active | Not Active |  |  |  |  |  |  | 
23 | Oc1ccccc1O [CATECHOL] | Not Active | Not Active | Not Active | Not Active | Not Active | Not Active | Not Active | Not Active |  |  |  |  |  |  | 
24 | CO[C@@]1(NC(=O)CSCC#N)C(=O)N2C(C(=O)O)=C(CSc3nnnn3C)CS[C@@H]21 [CEFMETAZOLE] | Not Active | Not Active | Not Active | Not Active | Not Active | Not Active | Not Active | Not Active |  |  |  |  |  |  | 
25 | CN(C(=O)CCCOc1ccc2[nH]c(=O)ccc2c1)C1CCCCC1 [CILOSTAMIDE] | Not Active | Not Active | Not Active | Not Active |  | Not Active | Not Active | Not Active |  |  |  |  |  | 5.43 | 5.72
26 | CC(C)(Oc1ccc(C2CC2(Cl)Cl)cc1)C(=O)O (stereo unspecified) [CIPROFIBRATE] | Not Active | Not Active | Not Active | Not Active | Not Active | Not Active | Not Active | Not Active |  |  |  |  |  |  | 
27 | Nc1nc(Cl)nc2c1ncn2[C@H]1C[C@H](O)[C@@H](CO)O1 [CLADRIBINE] | Not Active | Not Active | Not Active | Not Active | Not Active | Not Active | Not Active | Not Active |  |  |  |  |  |  | 
28 | CC[C@H]1OC(=O)[C@H](C)[C@@H](O[C@H]2C[C@@](C)(OC)[C@@H](O)[C@H](C)O2)[C@H](C)[C@@H](O[C@@H]2O[C@H](C)C[C@H](N(C)C)[C@H]2O)[C@](C)(OC)C[C@@H](C)C(=O)[C@H](C)[C@@H](O)[C@]1(C)O [CLARITHROMYCIN] | Not Active | Not Active | Not Active | Not Active | Not Active | Not Active | Not Active | Not Active |  |  |  |  |  |  | 
29 | CCC[C@@H]1C[C@@H](C(=O)N[C@@H]([C@H]2O[C@H](SC)[C@H](O)[C@@H](O)[C@H]2O)[C@H](C)Cl)N(C)C1 [CLINDAMYCIN] | Not Active | Not Active | Not Active | Not Active | Not Active | Not Active | Not Active | Not Active |  |  |  |  |  |  | 
30 | Cc1cnc(C(=O)NCCc2ccc(S(=O)(=O)NC(=O)NC3CCCCC3)cc2)cn1 [GLIPIZIDE] | Not Active | Not Active | Not Active | Not Active | Not Active |  | Not Active | Not Active |  |  |  |  |  |  | 
